{
  "source": "paper PMC8752738",
  "about": "“A propolis-derived small molecule ameliorates metabolic syndrome in obese mice by targeting the CREB/CRTC2 transcriptional complex” (Nature Communications, 2022)",
  "key": {"CREB-CRTC2 interaction": {"target": "T1, CREB-CRTC2 interaction (Homo sapiens, UniProt P16220)", "T1 construct": "expressed in transfected cells; host or cells: HEK293T", "assay": "CREB–CRTC2 mammalian two-hybrid assay (GAL4-Luc reporter)", "type": "cell-based", "parameters": "CREB/CRTC2 -luc activity %: concentration or dose not given beside the values", "details": "for relative Gal4-luc activity %: Fig 3b replicates"}, "[1]": {"target": "T2, endogenous CREB / CRTC2 interaction (Mus musculus, UniProt Q01147)", "T2 construct": "endogenous in cells; host or cells: mouse primary hepatocytes", "assay": "Co-immunoprecipitation by anti-CRTC2 antibody, primary hepatocytes: CREB", "type": "cell-based", "experimental": "Fig. 2 APC blocks interaction between CREB and CRTC2. a Analysis of GST-CREB immunoprecipitated with overexpressed FLAG-CRTC2 from the lysates of HEK293T cells. APC (10 μM) was added to the culture media for 1 h and the following IP mixture. The relative gray density of FLAG in GST-pull-down fraction is shown as a bar graph (bottom). One of three independent experiments is presented (top, n = 3). Data are represented as mean ± SEM); P values were determined by one-way ANOVA followed Dunnett’s multiple comparisons test. b Analysis of HA-CRTC2 immunoprecipitated with endogenous CREB from primary hepatocyte lysates. […] Data are represented as mean ± SEM; P values were determined by one-way ANOVA followed Dunnett’s multiple comparisons test. c Immunoblotting analysis of endogenous CREB, CRTC2, and CBP interaction by an anti-CRTC2 antibody from the lysate of primary hepatocytes. […] Data are represented as mean ± SEM; P values were determined by two-way ANOVA followed Bonferroni’s multiple comparisons test. d Immunoblotting analysis of protein GST-CREB recovered HIS-CRTC2-S171A proteins purified from E. coli. […] Data are represented as mean ± SEM; P values were determined by one-way ANOVA followed Dunnett’s multiple comparisons test (compared with APC = 0). […]"}, "[2]": {"target": "T3, CREB-KID / CBP-KIX interaction (Homo sapiens, UniProt P16220)", "T3 construct": "CBP-KIX and CREB-KID domains as determined by two-hybrid assay; expressed in transfected cells; host or cells: HEK293T", "T3 sequence (P16220 87-146 limits assumed)": "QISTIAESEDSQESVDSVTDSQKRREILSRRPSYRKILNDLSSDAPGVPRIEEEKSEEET", "assay": "Two-hybrid assay BD-CREB-KID / AD-CBP-KIX", "type": "cell-based", "details": "HEK293T, 10 μM, 8-h"}, "[3]": {"target": "T4, CRTC2 / SEC31A interaction (Mus musculus, UniProt Q3U182+Q3UPL0)", "T4 construct": "expressed in transfected cells; host or cells: HEK293", "T4 sequence (Q3U182 whole entry)": "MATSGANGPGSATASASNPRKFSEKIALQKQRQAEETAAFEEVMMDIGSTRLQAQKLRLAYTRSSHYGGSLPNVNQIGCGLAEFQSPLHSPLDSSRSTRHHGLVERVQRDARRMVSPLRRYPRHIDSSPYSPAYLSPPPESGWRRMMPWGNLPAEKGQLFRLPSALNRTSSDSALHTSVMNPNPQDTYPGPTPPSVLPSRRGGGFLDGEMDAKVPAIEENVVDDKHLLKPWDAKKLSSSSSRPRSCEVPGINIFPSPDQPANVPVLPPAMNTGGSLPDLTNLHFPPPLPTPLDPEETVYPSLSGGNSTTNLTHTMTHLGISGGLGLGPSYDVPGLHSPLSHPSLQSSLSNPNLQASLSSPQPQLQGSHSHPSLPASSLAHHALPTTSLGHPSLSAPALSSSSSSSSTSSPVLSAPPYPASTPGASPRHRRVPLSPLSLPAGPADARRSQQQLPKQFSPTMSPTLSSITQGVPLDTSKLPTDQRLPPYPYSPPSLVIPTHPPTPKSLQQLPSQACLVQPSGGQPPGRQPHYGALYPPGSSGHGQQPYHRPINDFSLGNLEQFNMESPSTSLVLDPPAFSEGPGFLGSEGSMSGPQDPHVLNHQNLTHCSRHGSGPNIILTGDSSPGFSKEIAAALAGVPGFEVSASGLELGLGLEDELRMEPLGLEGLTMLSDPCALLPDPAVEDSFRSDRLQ", "T4 sequence (Q3UPL0 whole entry)": "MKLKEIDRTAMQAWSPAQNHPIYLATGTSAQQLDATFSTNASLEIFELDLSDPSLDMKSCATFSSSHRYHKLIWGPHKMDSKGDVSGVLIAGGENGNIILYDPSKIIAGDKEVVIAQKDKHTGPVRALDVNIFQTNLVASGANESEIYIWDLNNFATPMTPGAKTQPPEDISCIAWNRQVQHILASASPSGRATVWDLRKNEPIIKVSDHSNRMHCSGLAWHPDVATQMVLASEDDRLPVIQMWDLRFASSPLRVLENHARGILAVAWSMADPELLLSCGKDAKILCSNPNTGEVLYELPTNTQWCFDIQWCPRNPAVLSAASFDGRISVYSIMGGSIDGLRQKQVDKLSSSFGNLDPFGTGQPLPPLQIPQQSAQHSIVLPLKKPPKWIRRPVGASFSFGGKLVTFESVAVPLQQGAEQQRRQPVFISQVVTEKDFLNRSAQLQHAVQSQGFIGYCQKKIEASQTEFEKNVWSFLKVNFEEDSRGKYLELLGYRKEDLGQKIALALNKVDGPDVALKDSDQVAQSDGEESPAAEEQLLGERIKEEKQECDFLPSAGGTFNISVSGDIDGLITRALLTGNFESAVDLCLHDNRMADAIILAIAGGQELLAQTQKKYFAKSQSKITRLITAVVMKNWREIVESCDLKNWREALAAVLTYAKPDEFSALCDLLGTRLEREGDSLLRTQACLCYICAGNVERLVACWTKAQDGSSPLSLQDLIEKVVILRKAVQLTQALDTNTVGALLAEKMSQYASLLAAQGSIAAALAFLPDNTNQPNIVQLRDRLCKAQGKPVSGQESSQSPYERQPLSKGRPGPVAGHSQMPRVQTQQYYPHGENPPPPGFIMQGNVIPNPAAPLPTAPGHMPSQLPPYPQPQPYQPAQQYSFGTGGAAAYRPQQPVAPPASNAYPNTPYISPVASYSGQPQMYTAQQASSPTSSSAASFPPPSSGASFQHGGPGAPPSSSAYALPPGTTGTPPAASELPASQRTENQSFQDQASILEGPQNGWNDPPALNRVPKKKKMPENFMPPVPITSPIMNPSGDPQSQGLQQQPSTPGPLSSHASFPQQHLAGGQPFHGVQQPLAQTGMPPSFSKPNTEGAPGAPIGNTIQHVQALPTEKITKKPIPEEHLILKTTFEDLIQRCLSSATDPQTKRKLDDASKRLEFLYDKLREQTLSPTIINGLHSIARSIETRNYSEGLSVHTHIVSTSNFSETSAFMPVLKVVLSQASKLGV", "assay": "Co-immunoprecipitation CRTC2 / SEC31A", "type": "biochemical", "details": "APC 10 μM in IP mixture", "experimental": "1 b) Immunoprecipitation of SEC31A from HEK293 cell lysates with overexpressed […] or\n2 FLAG-Crtc2-WT. APC (10 μM) was added to the IP mixture overnight. One of two independent\n3 experiments is shown here. […]\n5 administered MET and APC as in (a). Data are represented as mean ± SEM (n=6 per group). *,\n6 p < 0.05; **, p < 0.01; p values were determined by two-way ANOVA followed Bonferroni’s multiple\n7 comparisons test. Source data for this figure are provided as a Source data file."}, "[4]": {"assay": "Blood chemistry (plasma hormones by ELISA)", "type": "in vivo, mouse", "experimental": "The plasma hormone levels of insulin and ghrelin were measured by ELISA kits from Millipore, glucagon and leptin were determined by ELISA kits from R&D."}, "[5]": {"details": "DIO mice, APC 10mg/kg, group mean, n=6"}, "[6]": {"details": "DIO mice, APC 10mg/kg, individual mouse"}, "[7]": {"details": "DIO mice, APC 20mg/kg, individual mouse"}},
  "note": "pIC50: −log10 of the molar value. Several values for one entry are separate records, joined by “and”; a condition that tells them apart may be missing. Equal entries are not always repeated. Entries after “also recorded” stand apart in the source; their conditions may differ.",
  "data": [
    {"smiles": "CC(C)=CCc1cc(C=CC(=O)O)cc(CC=C(C)C)c1O", "note": "[APC, 3,5-diprenyl-4-hydroxycinnamic acid]", "values": [
      {"measurement": "remaining activity at 1000 µM", "setting": "CREB-CRTC2 interaction; 16 h, Figure 9b, Log10(M) -3, single replicates, read-out: Gal4-LUC reporter activiry, %", "result": 0.439, "unit": "%"},
      {"measurement": "remaining activity at 100 µM", "setting": "CREB-CRTC2 interaction; 16 h, Figure 9b, Log10(M) -4, single replicates, read-out: Gal4-LUC reporter activiry, %", "result": 0.257, "unit": "%"},
      {"measurement": "remaining activity at 1 µM", "setting": "CREB-CRTC2 interaction; 16 h, Figure 9b, Log10(M) -6, single replicates, read-out: Gal4-LUC reporter activiry, %", "result": 36.2, "unit": "%"},
      {"measurement": "remaining activity at 0.1 µM", "setting": "CREB-CRTC2 interaction; 16 h, Figure 9b, Log10(M) -7, single replicates, read-out: Gal4-LUC reporter activiry, %", "result": 71.6, "unit": "%"},
      {"measurement": "remaining activity at 0.01 µM", "setting": "CREB-CRTC2 interaction; 16 h, Figure 9b, Log10(M) -8, single replicates, read-out: Gal4-LUC reporter activiry, %", "result": 92.8, "unit": "%"},
      {"measurement": "remaining activity at 0.001 µM", "setting": "CREB-CRTC2 interaction; 16 h, Figure 9b, Log10(M) -9, single replicates, read-out: Gal4-LUC reporter activiry, %", "result": 74.9, "unit": "%"},
      {"measurement": "remaining activity at 0.0001 µM", "setting": "CREB-CRTC2 interaction; 16 h, Figure 9b, Log10(M) -10, single replicates, read-out: Gal4-LUC reporter activiry, %", "result": 102, "unit": "%"},
      {"measurement": "relative Gal4-luc activity %", "setting": "CREB-CRTC2 interaction; APC Log10(M) -3", "result": "0.3266% and 0.2637% and 0.3128%"},
      {"measurement": "relative Gal4-luc activity %", "setting": "CREB-CRTC2 interaction; APC Log10(M) -4", "result": "10.2018% and 10.3248% and 10.277%"},
      {"measurement": "relative Gal4-luc activity %", "setting": "CREB-CRTC2 interaction; APC Log10(M) -5", "result": "61.3194% and 69.9978% and 76.9726%"},
      {"measurement": "relative Gal4-luc activity %", "setting": "CREB-CRTC2 interaction; APC Log10(M) -6", "result": "65.67% and 82.3932% and 92.7658%"},
      {"measurement": "relative Gal4-luc activity %", "setting": "CREB-CRTC2 interaction; APC Log10(M) -7", "result": "64.5839% and 85.9224% and 107.618%"},
      {"measurement": "relative Gal4-luc activity %", "setting": "CREB-CRTC2 interaction; APC Log10(M) -8", "result": "99.4977% and 99.5841% and 100.918%"},
      {"measurement": "relative Gal4-luc activity %", "setting": "CREB-CRTC2 interaction; APC Log10(M) -9", "result": "107.021% and 111.522% and 103.779%"},
      {"measurement": "Relative Gal4-LUC activity, single replicates", "setting": "CREB-CRTC2 interaction; Figure 1f, CREB-CRTC2 two-hybrid assay, DMSO control about 100, listed as P3", "result": "21.4874 and 38.8421 and 27.0437"},
      {"measurement": "reporter activity of CREB–CRTC2 two-hybrid assay", "setting": "CREB-CRTC2 interaction; HEK293T, isolated compound 25 μM, listed as P3", "result": "significantly inhibited; also recorded: most potent"},
      {"measurement": "Related Gal4-luc %", "setting": "CREB-CRTC2 interaction; Supp. Fig.10 a, individual replicates, Ctrl about 97", "result": "42.290% and 38.150% and 46.110% and 51.003%"},
      {"measurement": "Related Gal4-luc %, group mean (Test details, Mean 2)", "setting": "CREB-CRTC2 interaction; Supp. Fig.10 a, mean of n=4, CTRL mean 96.58", "result": 44.39, "unit": "%"},
      {"measurement": "CREB/CRTC2 -luc activity %", "setting": "CREB-CRTC2 interaction; Supp. Fig.10 b, individual replicates, Ctrl about 100", "result": "51.481% and 56.411% and 65.126%"},
      {"measurement": "pIC50", "setting": "CREB-CRTC2 interaction; cell-based two-hybrid assay, HEK293T cells, read-out: IC50 for disrupting CREB–CRTC2 interaction", "result": "~4.61 and 4.61"},
      {"measurement": "CREB/CRTC2 band gray signal, CRTC2-COIP fraction", "setting": "[1]; Fig 2c replicates, APC+ (10 μM)", "result": "0.6304 and 0.625 and 0.6291"},
      {"measurement": "endogenous CREB co-immunoprecipitated by anti-CRTC2 antibody", "setting": "[1]; primary hepatocyte lysates, APC 10 μM", "result": "significantly decreased"},
      {"measurement": "interaction of CBP-KIX and CREB-KID domains (two-hybrid)", "setting": "[2]", "result": "little effect; also recorded: neither APC nor A57 reduced"},
      {"measurement": "protein interaction between CRTC2 and SEC31A", "setting": "[3]", "result": "no impact"},
      {"measurement": "plasma insulin and glucagon levels", "setting": "[4]; DIO and db/db mice", "result": "without a change"},
      {"measurement": "leptin levels", "setting": "[4]; DIO mice", "result": "not significant"},
      {"measurement": "plasma glucagon in DIO, mean", "setting": "[4]; [5]", "result": 109, "unit": "ng/dL"},
      {"measurement": "plasma leptin in DIO, mean", "setting": "[4]; [5]", "result": 54.89, "unit": "ng/mL"},
      {"measurement": "plasma glucagon in DIO", "setting": "[4]; [6]", "result": "116.57 ng/dL and 100.35 ng/dL and 100.46 ng/dL and 94.57 ng/dL and 118.78 ng/dL and 123.34 ng/dL"},
      {"measurement": "plasma leptin in DIO", "setting": "[4]; [6]", "result": "54.49 ng/mL and 52.07 ng/mL and 53.5 ng/mL and 46.64 ng/mL and 59.49 ng/mL and 63.13 ng/mL"},
      {"measurement": "plasma glucagon in DIO, mean", "setting": "[4]; DIO mice, APC 20mg/kg, group mean, n=6", "result": 102.8, "unit": "ng/dL"},
      {"measurement": "plasma glucagon in DIO", "setting": "[4]; [7]", "result": "108 ng/dL and 94.83 ng/dL and 125.84 ng/dL and 81.38 ng/dL and 93.2 ng/dL and 113.74 ng/dL"},
      {"measurement": "plasma leptin in DIO", "setting": "[4]; [7]", "result": "64.99 ng/mL and 59.47 ng/mL and 49.46 ng/mL and 54.02 ng/mL and 54.7 ng/mL and 57.91 ng/mL"},
      {"measurement": "Plasma Insulin, mean", "setting": "[4]; Figure 8e, APC 10mg/kg, group mean, n=5, VEH mean 5.378", "result": 4.88, "unit": "ng/mL"},
      {"measurement": "Plasma Insulin", "setting": "[4]; Figure 8e, APC 10mg/kg, individual mice", "result": "5.624 ng/mL and 3.217 ng/mL and 4.483 ng/mL and 6.089 ng/mL and 4.987 ng/mL"},
      {"measurement": "Plasma Insulin, mean", "setting": "[4]; Figure 8e, APC 20mg/kg, group mean, n=5, VEH mean 5.378", "result": 4.334, "unit": "ng/mL"},
      {"measurement": "Plasma Insulin", "setting": "[4]; Figure 8e, APC 20mg/kg, individual mice", "result": "3.191 ng/mL and 4.624 ng/mL and 5.384 ng/mL and 4.549 ng/mL and 3.923 ng/mL"},
      {"measurement": "leptin levels", "setting": "[4]; db/db mice", "result": "effectively reduced"},
      {"measurement": "plasma ghrelin", "setting": "[4]; db/db mice", "result": "no significant effects"},
      {"measurement": "Plasma Insulin, mean", "setting": "[4]; db/db mice, group mean, n=6", "result": 12.2, "unit": "ng/mL"},
      {"measurement": "plasma glucagon in db/db, mean", "setting": "[4]; db/db mice, group mean, n=6", "result": 266, "unit": "ng/dL"},
      {"measurement": "Plasma Insulin", "setting": "[4]; db/db mice, individual mouse", "result": "9.327 ng/mL and 11.259 ng/mL and 11.886 ng/mL and 10.188 ng/mL and 13.359 ng/mL and 17.190 ng/mL"},
      {"measurement": "plasma glucagon in db/db", "setting": "[4]; db/db mice, individual mouse", "result": "251.14 ng/dL and 274.24 ng/dL and 342.64 ng/dL and 244.9 ng/dL and 187.78 ng/dL and 295.42 ng/dL"},
      {"measurement": "plasma Ghrelin in db/db ip APC", "setting": "[4]; db/db mice, ip APC, single animals", "result": "12.653 ng/mL and 14.269 ng/mL and 10.885 ng/mL and 7.483 ng/mL and 8.587 ng/mL"},
      {"measurement": "Plasma leptin, mean of column B (APC)", "setting": "[4]; db/db mice, group mean (Figure 8l), n=5, VEH mean 1.196", "result": 0.714, "unit": "ng/mL"},
      {"measurement": "Plasma leptin", "setting": "[4]; db/db mice, individual animals (Figure 8l), n=5", "result": "0.7357 ng/mL and 0.6738 ng/mL and 0.8588 ng/mL and 0.5919 ng/mL and 0.7100 ng/mL"}
    ]}
  ]
}
